Measured values published in ChEMBL document CHEMBL2177002, “Antifungal spectrum, in vivo efficacy, and structure-activity relationship of ilicicolin h” (ACS Med Chem Lett, 2012).
≈ marks a conversion by molar mass, not a printed value. Calls of active or inactive are those of the source. No cut-off for these calls is given here.

Columns and labels:
[1] = system: Candida albicans; experiment: Antifungal activity against Candida albicans MY 1055 after 24 hrs by NCCLS broth microdilution method; assay type: functional; conditions: for MIC: MY 1055, 24 h
[2] = system: Cryptococcus neoformans; experiment: Antifungal activity against Cryptococcus neoformans H 99 after 40 hrs by NCCLS broth microdilution method; assay type: functional
[3] = system: Nakaseomyces glabratus; experiment: Antifungal activity against Candida glabrata CLY 574 after 24 hrs by NCCLS broth microdilution method; assay type: functional
[4] = system: Clavispora lusitaniae; experiment: Antifungal activity against Candida lusitaniae MY 1396 after 24 hrs by NCCLS broth microdilution method; assay type: functional
[5] = system: Candida albicans; experiment: Antifungal activity against fluconazole-resistant Candida albicans MY 2301 after 24 hrs by NCCLS broth microdilution method; assay type: functional
[6] = system: Meyerozyma guilliermondii; experiment: Antifungal activity against Candida guilliermondii CLY 346 after 24 hrs by NCCLS broth microdilution method; assay type: functional
[7] = system: Cryptococcus neoformans; experiment: Antifungal activity against Cryptococcus neoformans MY 2061 after 40 hrs by NCCLS broth microdilution method; assay type: functional
[8] = system: Candida parapsilosis; experiment: Antifungal activity against Candida parapsilosis ATCC 22019 after 24 hrs by NCCLS broth microdilution method; assay type: functional
[9] = system: Meyerozyma guilliermondii; experiment: Antifungal activity against Candida guilliermondii CLY 308 after 24 hrs by NCCLS broth microdilution method; assay type: functional
[10] = system: Pichia kudriavzevii; experiment: Antifungal activity against Candida krusei CLY 549 after 24 hrs by NCCLS broth microdilution method; assay type: functional
[11] = system: Nakaseomyces glabratus; experiment: Antifungal activity against Candida glabrata MY 1381 after 24 hrs by NCCLS broth microdilution method; assay type: functional
[12] = system: Candida tropicalis; experiment: Antifungal activity against Candida tropicalis MY 1012 after 40 hrs by NCCLS broth microdilution method; assay type: functional
[13] = system: Candida albicans; experiment: Antifungal activity against Candida albicans SC 53124 after 24 hrs by NCCLS broth microdilution method; assay type: functional
[14] = Inhibition of Candida albicans MY 1055 NADH:cytochrome c oxidoreductase
[15] = Selectivity ratio of MIC for Candida albicans MY 1055 to IC50 for Candida albicans MY 1055 NADH:cytochrome c oxidoreductase; assay type: functional
[16] = system: Cytochrome b (Candida albicans (strain SC5314 / ATCC MYA-2876) (Yeast)), P0C8L0 [G37C]; experiment: Inhibition of Candida albicans isolate 3 cytochrome bc1 complex harboring cytochrome b G37C mutant
[17] = system: Cytochrome b (Saccharomyces cerevisiae (strain ATCC 204508 / S288c) (Baker's yeast)), P00163 [G37D]; experiment: Inhibition of Saccharomyces cerevisiae isolate 2 cytochrome bc1 complex harboring cytochrome b G37D mutant
[18] = system: Cytochrome b (Candida albicans (strain SC5314 / ATCC MYA-2876) (Yeast)), P0C8L0 [G37S]; experiment: Inhibition of Candida albicans isolate 6 cytochrome bc1 complex harboring cytochrome b G37S mutant
[19] = system: Cytochrome b (Saccharomyces cerevisiae (strain ATCC 204508 / S288c) (Baker's yeast)), P00163 [S20L]; experiment: Inhibition of Saccharomyces cerevisiae isolate 1 cytochrome bc1 harboring cytochrome b S20L mutant
[20] = system: Cytochrome b (Saccharomyces cerevisiae (strain ATCC 204508 / S288c) (Baker's yeast)), P00163 [L198F]; experiment: Inhibition of Saccharomyces cerevisiae isolate 1 cytochrome bc1 complex harboring cytochrome b L198F mutant
[21] = system: Cytochrome b (Saccharomyces cerevisiae (strain ATCC 204508 / S288c) (Baker's yeast)), P00163 [Q22E]; experiment: Inhibition of Saccharomyces cerevisiae isolate 3 cytochrome bc1 complex harboring cytochrome b Q22E mutant
[22] = system: Cytochrome b (Saccharomyces cerevisiae (strain ATCC 204508 / S288c) (Baker's yeast)), P00163 [Q22T]; experiment: Inhibition of Saccharomyces cerevisiae isolate 2 cytochrome bc1 complex harboring cytochrome b Q22T mutant
[23] = system: Cytochrome b (Candida albicans (strain SC5314 / ATCC MYA-2876) (Yeast)), P0C8L0 [Q22E]; experiment: Inhibition of Candida albicans isolate 2 cytochrome bc1 complex harboring cytochrome b Q22E mutant
[24] = system: Cytochrome b (Saccharomyces cerevisiae (strain ATCC 204508 / S288c) (Baker's yeast)), P00163 [S20T]; experiment: Inhibition of Saccharomyces cerevisiae isolate 1 cytochrome bc1 harboring cytochrome b S20T mutant
[25] = system: Cytochrome b (Candida albicans (strain SC5314 / ATCC MYA-2876) (Yeast)), P0C8L0 [S20I]; experiment: Inhibition of Candida albicans isolate 1 cytochrome bc1 complex harboring cytochrome b S20I mutant
[26] = system: Cytochrome b (Candida albicans (strain SC5314 / ATCC MYA-2876) (Yeast)), P0C8L0 [G37D]; experiment: Inhibition of Candida albicans isolate 4 cytochrome bc1 complex harboring cytochrome b G37D mutant
[27] = system: Cytochrome b (Saccharomyces cerevisiae (strain ATCC 204508 / S288c) (Baker's yeast)), P00163 [G37S]; experiment: Inhibition of Saccharomyces cerevisiae isolate 2 cytochrome bc1 complex harboring cytochrome b G37S mutant
Cytochrome b (Saccharomyces cerevisiae (strain ATCC 204508 / S288c) (Baker's yeast)), P00163 [G37S], sequence (P00163 whole entry G37S): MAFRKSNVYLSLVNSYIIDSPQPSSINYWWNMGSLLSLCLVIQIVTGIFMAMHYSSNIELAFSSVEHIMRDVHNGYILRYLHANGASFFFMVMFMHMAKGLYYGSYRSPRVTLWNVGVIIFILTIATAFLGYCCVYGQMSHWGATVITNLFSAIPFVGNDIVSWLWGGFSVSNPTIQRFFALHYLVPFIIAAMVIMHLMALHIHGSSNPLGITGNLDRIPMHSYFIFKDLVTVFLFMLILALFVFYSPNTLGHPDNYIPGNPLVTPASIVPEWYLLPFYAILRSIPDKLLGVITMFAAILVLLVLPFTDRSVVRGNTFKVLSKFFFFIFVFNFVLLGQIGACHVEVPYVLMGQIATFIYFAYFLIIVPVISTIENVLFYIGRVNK

Cytochrome b (Candida albicans (strain SC5314 / ATCC MYA-2876) (Yeast)), P0C8L0 [G37C], sequence (P0C8L0 whole entry G37C): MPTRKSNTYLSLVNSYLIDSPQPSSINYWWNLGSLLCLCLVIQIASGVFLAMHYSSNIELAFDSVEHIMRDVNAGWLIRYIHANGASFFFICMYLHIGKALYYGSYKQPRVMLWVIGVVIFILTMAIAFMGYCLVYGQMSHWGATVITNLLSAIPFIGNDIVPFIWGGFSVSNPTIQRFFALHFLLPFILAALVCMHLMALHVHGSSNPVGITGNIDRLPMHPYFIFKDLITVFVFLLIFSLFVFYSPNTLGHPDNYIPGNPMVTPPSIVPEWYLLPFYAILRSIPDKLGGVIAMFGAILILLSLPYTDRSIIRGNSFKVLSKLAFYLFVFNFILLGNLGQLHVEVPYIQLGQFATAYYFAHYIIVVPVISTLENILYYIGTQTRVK
Cytochrome b (Candida albicans (strain SC5314 / ATCC MYA-2876) (Yeast)), P0C8L0 [S20I], sequence (P0C8L0 whole entry S20I): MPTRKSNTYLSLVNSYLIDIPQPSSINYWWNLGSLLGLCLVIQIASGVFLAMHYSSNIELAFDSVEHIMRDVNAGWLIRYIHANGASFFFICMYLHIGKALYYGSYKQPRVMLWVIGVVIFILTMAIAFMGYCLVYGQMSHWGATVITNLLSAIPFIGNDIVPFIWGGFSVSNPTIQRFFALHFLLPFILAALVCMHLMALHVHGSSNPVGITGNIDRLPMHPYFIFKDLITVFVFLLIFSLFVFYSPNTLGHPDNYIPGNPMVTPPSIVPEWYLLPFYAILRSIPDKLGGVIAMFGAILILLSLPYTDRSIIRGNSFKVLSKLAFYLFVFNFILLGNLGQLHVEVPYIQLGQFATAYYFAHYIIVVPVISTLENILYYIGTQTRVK
Cytochrome b (Saccharomyces cerevisiae (strain ATCC 204508 / S288c) (Baker's yeast)), P00163 [G37D], sequence (P00163 whole entry G37D): as the sequence (P00163 whole entry G37S) above, with S37D counted along it
Cytochrome b (Saccharomyces cerevisiae (strain ATCC 204508 / S288c) (Baker's yeast)), P00163 [Q22E], sequence (P00163 whole entry Q22E): as the sequence (P00163 whole entry G37S) above, with Q22E, S37G counted along it
Cytochrome b (Candida albicans (strain SC5314 / ATCC MYA-2876) (Yeast)), P0C8L0 [G37S], sequence (P0C8L0 whole entry G37S): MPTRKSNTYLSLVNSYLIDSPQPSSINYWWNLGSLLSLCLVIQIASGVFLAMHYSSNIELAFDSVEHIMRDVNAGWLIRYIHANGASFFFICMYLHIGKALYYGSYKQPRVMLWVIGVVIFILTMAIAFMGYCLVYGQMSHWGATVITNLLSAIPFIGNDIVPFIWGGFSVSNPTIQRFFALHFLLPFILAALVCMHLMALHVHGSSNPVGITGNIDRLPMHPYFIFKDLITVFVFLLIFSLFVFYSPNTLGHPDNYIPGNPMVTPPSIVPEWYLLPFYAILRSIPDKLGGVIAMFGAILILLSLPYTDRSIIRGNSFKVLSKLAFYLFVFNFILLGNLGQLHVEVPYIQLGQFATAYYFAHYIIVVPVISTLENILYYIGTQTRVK
Cytochrome b (Saccharomyces cerevisiae (strain ATCC 204508 / S288c) (Baker's yeast)), P00163 [L198F], sequence (P00163 whole entry L198F): as the sequence (P00163 whole entry G37S) above, with S37G, L198F counted along it
Cytochrome b (Candida albicans (strain SC5314 / ATCC MYA-2876) (Yeast)), P0C8L0 [Q22E], sequence (P0C8L0 whole entry Q22E): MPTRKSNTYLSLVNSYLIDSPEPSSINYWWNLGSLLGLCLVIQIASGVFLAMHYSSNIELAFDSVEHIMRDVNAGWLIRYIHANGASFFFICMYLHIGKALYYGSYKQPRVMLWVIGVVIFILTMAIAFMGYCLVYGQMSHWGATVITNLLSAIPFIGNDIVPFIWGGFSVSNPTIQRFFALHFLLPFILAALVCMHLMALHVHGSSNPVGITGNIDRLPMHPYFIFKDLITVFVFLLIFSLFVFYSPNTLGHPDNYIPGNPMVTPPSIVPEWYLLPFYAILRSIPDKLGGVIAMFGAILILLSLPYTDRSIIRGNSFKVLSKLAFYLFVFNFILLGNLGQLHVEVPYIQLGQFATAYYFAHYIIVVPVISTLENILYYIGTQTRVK
Cytochrome b (Saccharomyces cerevisiae (strain ATCC 204508 / S288c) (Baker's yeast)), P00163 [S20T], sequence (P00163 whole entry S20T): as the sequence (P00163 whole entry G37S) above, with S20T, S37G counted along it
Cytochrome b (Saccharomyces cerevisiae (strain ATCC 204508 / S288c) (Baker's yeast)), P00163 [Q22T], sequence (P00163 whole entry Q22T): as the sequence (P00163 whole entry G37S) above, with Q22T, S37G counted along it
Cytochrome b (Candida albicans (strain SC5314 / ATCC MYA-2876) (Yeast)), P0C8L0 [G37D], sequence (P0C8L0 whole entry G37D): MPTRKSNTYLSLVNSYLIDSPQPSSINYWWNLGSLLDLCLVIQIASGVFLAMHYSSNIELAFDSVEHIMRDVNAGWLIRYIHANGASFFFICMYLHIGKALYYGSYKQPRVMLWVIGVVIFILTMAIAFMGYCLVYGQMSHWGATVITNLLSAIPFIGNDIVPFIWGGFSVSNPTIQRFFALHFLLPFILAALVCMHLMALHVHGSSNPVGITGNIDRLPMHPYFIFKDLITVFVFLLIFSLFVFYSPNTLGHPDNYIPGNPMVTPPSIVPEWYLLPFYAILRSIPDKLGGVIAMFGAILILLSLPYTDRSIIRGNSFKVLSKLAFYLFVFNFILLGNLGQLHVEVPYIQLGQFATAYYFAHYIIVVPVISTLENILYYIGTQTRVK
Cytochrome b (Saccharomyces cerevisiae (strain ATCC 204508 / S288c) (Baker's yeast)), P00163 [S20L], sequence (P00163 whole entry S20L): as the sequence (P00163 whole entry G37S) above, with S20L, S37G counted along it

C/C=C/[C@H]1C(c2noc3c(-c4ccc(O)cc4)c[nH]c(=O)c23)C=C(C)[C@H]2CC[C@H](C)C[C@@H]21 (single isomer, unassigned)
MIC [1]: > 10 µg/mL

OC(Cn1cncn1)(Cn1cncn1)c1ccc(F)cc1F
Activity [2]: Active
Activity [3]: Active
Activity [4]: Active
Activity [5]: Active
Activity [6]: Active
Activity [1]: Active
Activity [7]: Active
Activity [8]: Active
Activity [9]: Active
Activity [10]: Active
Activity [11]: Active
Activity [12]: Active
Activity [13]: Active

C/C=C/[C@@H]1[C@H]2C[C@@H](C)CC[C@@H]2C(C)=C[C@H]1/C(=N\O)c1c(O)c(-c2ccc(O)cc2)c[nH]c1=O
MIC [1]: > 10 µg/mL

C/C=C/[C@H]1C(c2n[nH]c3c(-c4ccc(O)cc4)c[nH]c(=O)c23)C=C(C)[C@H]2CC[C@H](C)C[C@@H]21 (single isomer, unassigned)
IC50 [14]: 3 ng/mL (≈ 0.00698 µM)
MIC [1]: 0.25 µg/mL (≈ 0.582 µM)
Ratio [15]: 10

C[C@@H]1[C@H](O)[C@@H](C)/C=C/C=C/C=C/C=C/C=C/C=C/C=C/[C@H](O[C@@H]2O[C@H](C)[C@@H](O)[C@H](N)[C@@H]2O)C[C@@H]2O[C@](O)(C[C@@H](O)C[C@@H](O)[C@H](O)CC[C@@H](O)C[C@@H](O)CC(=O)O[C@H]1C)C[C@H](O)[C@H]2C(=O)O
Activity [2]: Active
Activity [3]: Active
Activity [4]: Active
Activity [5]: Active
Activity [6]: Active
Activity [1]: Active
Activity [7]: Active
Activity [8]: Active
Activity [9]: Active
Activity [10]: Active
Activity [11]: Active
Activity [12]: Active
Activity [13]: Active

CC[C@H](C)C[C@H](C)CCCCCCCCC(=O)N[C@H]1C[C@@H](O)[C@@H](NCCN)NC(=O)[C@@H]2[C@@H](O)CCN2C(=O)[C@H]([C@H](O)CCN)NC(=O)[C@H]([C@H](O)[C@@H](O)c2ccc(O)cc2)NC(=O)[C@@H]2C[C@@H](O)CN2C(=O)[C@H]([C@@H](C)O)NC1=O
Activity [2]: Active
Activity [3]: Active
Activity [4]: Active
Activity [5]: Active
Activity [6]: Active
Activity [1]: Active
Activity [7]: Active
Activity [8]: Active
Activity [9]: Active
Activity [10]: Active
Activity [11]: Active
Activity [12]: Active
Activity [13]: Active

C/C=C/[C@@H]1[C@H]2C[C@@H](C)CC[C@@H]2C(C)=C[C@H]1/C1=N/NCCOCC12C(=O)NC=C(c1ccc(O)cc1)C2=O (some centres not stated)
MIC [1]: > 10 µg/mL

CO/C(=C/C(N)=O)[C@H](C)[C@H](/C=C/c1csc(-c2csc([C@@H](C)/C=C/C=C/C(C)C)n2)n1)OC
inhibition [16]: Active
inhibition [17]: Active
inhibition [18]: Active
inhibition [19]: Active
inhibition [20]: Active
inhibition [21]: Active
inhibition [22]: Active
inhibition [23]: Active
inhibition [24]: Active
inhibition [25]: Active
inhibition [26]: Active
inhibition [27]: Active
